pIC50, pKi: −log10 of the molar value.
What was measured:
[1] = target: T1, Lysosomal Pro-X carboxypeptidase (Mus musculus, UniProt Q7TMR0); experiment: Inhibition of mouse PrCP
T1 sequence (Q7TMR0 whole entry): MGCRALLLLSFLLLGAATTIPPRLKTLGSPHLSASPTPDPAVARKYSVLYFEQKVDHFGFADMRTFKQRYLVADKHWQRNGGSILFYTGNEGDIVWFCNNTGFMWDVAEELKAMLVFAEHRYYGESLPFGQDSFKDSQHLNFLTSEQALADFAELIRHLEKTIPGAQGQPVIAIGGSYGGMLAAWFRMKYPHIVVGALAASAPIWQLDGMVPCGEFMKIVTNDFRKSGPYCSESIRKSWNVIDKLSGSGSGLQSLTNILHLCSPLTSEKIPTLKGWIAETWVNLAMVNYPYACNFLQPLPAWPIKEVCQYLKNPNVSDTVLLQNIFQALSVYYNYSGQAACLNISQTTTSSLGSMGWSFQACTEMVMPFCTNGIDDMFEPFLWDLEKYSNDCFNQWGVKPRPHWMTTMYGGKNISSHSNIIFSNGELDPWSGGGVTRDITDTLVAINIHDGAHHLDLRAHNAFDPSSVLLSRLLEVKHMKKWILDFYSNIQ

[2] = Plasma protein binding in 10% human plasma assessed as percentage unbound; type: ADME, cell-free
[3] = Plasma protein binding in 10% mouse plasma assessed as percentage unbound; type: ADME, cell-free
[4] = Metabolic stability in human liver microsomes after 30 mins by LC/MS analysis; type: ADME, Microsome; settings: read-out: Stability
[5] = Metabolic stability in mouse liver microsomes after 30 mins by LC/MS analysis; type: ADME, Microsome; settings: read-out: Stability
[6] = Clearance in mouse at 0.5 mg/kg, iv and 1 mg/kg, po; type: ADME, organism-based; settings: in vivo
[7] = Volume of distribution in mouse at 0.5 mg/kg, iv and 1 mg/kg, po; type: ADME, organism-based; settings: in vivo
[8] = Half life in mouse at 0.5 mg/kg, iv and 1 mg/kg, po; type: ADME, organism-based; settings: in vivo
[9] = test system: Mus musculus; experiment: Dose normalized AUC in mouse at 1 mg/kg, po; type: ADME, organism-based; design: dose 1 mg/kg, route oral; settings: in vivo
[10] = Oral bioavailability in mouse at 1 mg/kg; type: ADME, organism-based; settings: in vivo
[11] = target: Mus musculus; experiment: Ex-vivo inhibition of po dosed mouse PrCP in the absence of plasma by FRET analysis; type: functional, organism-based
[12] = target: Mus musculus; experiment: Ex-vivo inhibition of PrCP in heat inactivated 25% plasma of po dosed mouse by FRET analysis; type: functional, organism-based
[13] = target: Mus musculus; experiment: Ex-vivo inhibition of PrCP in heat inactivated 100% plasma of po dosed mouse by FRET analysis; type: functional, organism-based

pIC50 [1] | fraction unbound [2] | fraction unbound [3] | remaining at 0.5 h [4] [%] | remaining at 0.5 h [5] [%] | clearance [6] [mL/min/kg] | Vd [7] [L/kg] | half-life [8] [min] | AUC/dose [9] [µM·kg·h/mg] | bioavailability [10] [%] | pKi [11] | pKi [12] | pKi [13] | SMILES
7.47 | 0.7 | 0.54 | 57 | 47 |  |  |  |  |  |  |  |  | Cc1nc(C2CCN(C(=O)[C@@H]3CN(C(C)(C)C)C[C@H]3c3ccc(F)cc3F)CC2)n(-c2ccc(F)c(F)c2)n1
8.54 | 0.04 | 0.06 | 1 | 18 | 80 | 20 | 186 | 0.1 | 28 |  |  |  | Cc1cc(C2CCN(C(=O)[C@@H]3CN(C(C)(C)C)C[C@H]3c3ccc(F)cc3F)CC2)n(-c2ccc(Cl)c(C)c2)n1
8.64 |  |  |  |  | 65 | 17 | 186 | 0.17 | 37 |  |  |  | Cc1cc(C2CCN(C(=O)[C@@H]3CN(C(C)(C)C)C[C@H]3c3ccc(F)cc3F)CC2)n(-c2ccc(Cl)cc2C)n1
8.96 | 0.05 | 0.04 | < 1 | 1 | 165 | 24 | 126 | 0.01 | 5.5 |  |  |  | Cc1cc(C2CCN(C(=O)[C@@H]3CN(C(C)(C)C)C[C@H]3c3ccc(F)cc3F)CC2)n(-c2ccc(C)c(Cl)c2)n1
7.89 |  |  |  |  |  |  |  |  |  |  |  |  | Cc1cc(C2CCN(C(=O)[C@@H]3CN(C(C)(C)C)C[C@H]3c3ccc(F)cc3F)CC2)n(-c2cccc(Cl)c2)n1
8.46 | 0.11 | 0.17 | 28 | 37 | 41 | 14 | 234 | 0.24 | 29 |  |  |  | Cc1cc(C2CCN(C(=O)[C@@H]3CN(C(C)(C)C)C[C@H]3c3ccc(F)cc3F)CC2)n(-c2ccc(Cl)cc2)n1
7.36 | 0.32 | 0.42 | 5 | 10 | 163 | 17 | 108 | 0.01 | 6.4 |  |  |  | CC(C)(C)N1C[C@@H](C(=O)N2CCC(c3nnnn3-c3ccc(Cl)cc3)CC2)[C@H](c2ccc(F)cc2F)C1
9.00 | 0.02 | 0.019 | 45 | 18 | 43 | 11 | 162 | 0.26 | 38 | 8.77 | 8.23 | 7.74 | Cc1cc(C2CCN(C(=O)[C@@H]3CN(C(C)(C)C)C[C@H]3c3ccc(F)cc3F)CC2)n(-c2ccc(Cl)c(Cl)c2)n1
9.00 | 0.1 | 0.16 | 31 | 39 | 57 | 16 | 186 | 0.31 | 61 | 8.96 | 8.64 | 8.22 | Cc1cc(C2CCN(C(=O)[C@@H]3CN(C(C)(C)C)C[C@H]3c3ccc(F)cc3F)CC2)n(-c2ccc(Cl)cc2Cl)n1
7.52 |  |  |  |  |  |  |  |  |  |  |  |  | Cc1cc(C2CCN(C(=O)[C@@H]3CN(C(C)(C)C)C[C@H]3c3ccc(F)cc3F)CC2)n(-c2ccc(F)cc2)n1
7.92 |  |  |  |  | 63 | 14 | 150 | 0.26 | 54 | 8.28 | 8.12 | 7.84 | Cc1cc(C2CCN(C(=O)[C@@H]3CN(C(C)(C)C)C[C@H]3c3ccc(F)cc3F)CC2)n(-c2ccc(F)cc2F)n1
8.70 | 0.17 | 0.21 |  |  | 51 | 16 | 216 | 0.25 | 43 | 8.82 | 8.60 | 8.26 | Cc1cc(C2CCN(C(=O)[C@@H]3CN(C(C)(C)C)C[C@H]3c3ccc(F)cc3F)CC2)n(-c2ccc(Cl)cc2F)n1
8.32 |  |  |  |  |  |  |  |  |  | 8.44 | 8.05 | 7.60 | Cc1cc(C2CCN(C(=O)[C@@H]3CN(C(C)(C)C)C[C@H]3c3ccc(F)cc3F)CC2)n(-c2ccc(Cl)c(F)c2)n1
9.10 | 0.16 | 0.16 | 38 | 43 | 68 | 19 | 186 | 0.26 | 59 | 9.05 | 8.89 | 8.60 | Cc1cc(C2CCN(C(=O)[C@@H]3CN(C(C)(C)C)C[C@H]3c3ccc(F)cc3F)CC2)n(-c2ccc(F)c(Cl)c2)n1
8.85 | 0.14 | 0.09 | 34 | 37 |  |  |  |  |  | 8.92 | 8.80 | 8.55 | Cc1cc(C2CCN(C(=O)[C@@H]3CN(C(C)(C)C)C[C@H]3c3ccc(F)cc3F)CC2)n(-c2cc(Cl)ccc2F)n1
8.07 |  |  |  |  |  |  |  |  |  |  |  |  | Cc1cc(C2CCN(C(=O)[C@@H]3CN(C(C)(C)C)C[C@H]3c3ccc(F)cc3F)CC2)n(-c2cc(F)ccc2Cl)n1
6.71 | 0.12 | 0.07 | 53 | 82 |  |  |  |  |  |  |  |  | Cc1nc(C2CCN(C(=O)[C@@H]3CNC[C@H]3c3ccc(F)cc3F)CC2)n(-c2ccc(Cl)cc2)n1
7.31 |  |  | 59 | 58 |  |  |  |  |  |  |  |  | Cc1nc(C2CCN(C(=O)[C@@H]3CNC[C@H]3c3ccc(F)cc3F)CC2)n(-c2ccc(Cl)c(Cl)c2)n1
7.52 |  |  | 58 | 56 |  |  |  |  |  |  |  |  | Cc1nc(C2CCN(C(=O)[C@@H]3CNC[C@H]3c3ccc(F)cc3F)CC2)n(-c2cc(Cl)ccc2Cl)n1
7.49 |  |  | 49 | 57 |  |  |  |  |  |  |  |  | Cc1nc(C2CCN(C(=O)[C@@H]3CNC[C@H]3c3ccc(F)cc3F)CC2)n(-c2ccc(F)c(Cl)c2)n1
7.82 |  |  |  |  |  |  |  |  |  | 7.71 | 7.25 | 6.79 | Cc1cc(C2CCN(C(=O)[C@@H]3CNC[C@H]3c3ccc(F)cc3F)CC2)n(-c2ccc(Cl)c(Cl)c2)n1
8.36 | 0.12 | 0.05 |  |  | 173 | 19 | 84 | 0.04 | 23 | 8.38 | 8.05 | 7.64 | Cc1cc(C2CCN(C(=O)[C@@H]3CNC[C@H]3c3ccc(F)cc3F)CC2)n(-c2cc(Cl)ccc2Cl)n1
8.10 |  |  |  |  |  |  |  |  |  | 8.08 | 7.70 | 7.26 | Cc1cc(C2CCN(C(=O)[C@@H]3CNC[C@H]3c3ccc(F)cc3F)CC2)n(-c2ccc(F)c(Cl)c2)n1
8.43 | 0.12 | 0.1 | 44 | 59 | 60 | 8 | 96 | 0.16 | 27 | 8.54 | 8.11 | 7.66 | O=C([C@@H]1CNC[C@H]1c1ccc(F)cc1F)N1CCC(c2ccnn2-c2ccc(F)c(Cl)c2)CC1
7.96 | 0.1 | 0.19 | 29 | 6 | 127 | 20 | 126 | 0.03 | 13 | 8.52 | 8.22 | 7.82 | Cc1nc(C2CCN(C(=O)[C@H]3CN(C(C)(C)C)C[C@@H]3c3ccc(F)cc3F)CC2)n(-c2ccc(Cl)c(C)c2)n1
6.31 | 0.11 | 0.07 | 6 | 36 | 111 | 14 | 102 | 0.05 | 18 |  |  |  | Cc1cc(-n2nc(C3CCN(C(=O)[C@@H]4CN(C(C)(C)C)C[C@H]4c4ccc(F)cc4F)CC3)nc2C)ccc1Cl
7.59 | 0.25 | 0.49 | 35 | 46 | 96 | 14 | 114 | 0.16 | 48 |  |  |  | Cc1nc(C2CCN(C(=O)[C@@H]3CN(C(C)(C)C)C[C@H]3c3ccc(F)cc3F)CC2)n(-c2ccc(Cl)cc2)n1
